Measured values reported in patent US20080214606A1, “Methods for the Identification and Use of Compounds Suitable for the Treatment of Drug Resistant Cancer Cells” (The Government of the United States of America as …, priority 2004, published 2008).

Key:
[1] = target: T1, ABCC7 (Homo sapiens, UniProt P13569); assay: Correlation of ABCC7 expression with drug sensitivity across the NCI-60; assay type: cell-based; conditions: Pearson correlation of ABCC7 expression with sensitivity of the 60 cell lines; 1429 compounds; inverse, p < 0.0001
T1 construct: profiled in 60 diverse cancer cell lines (the NCI-60) using real-time RT-PCR; endogenous in cells; host or cells: NCI-60 human cancer cell lines
Protocol: (§1) Expression levels are measured by real-time quantitative RT-PCR using the LightCycler RNA Amplification SYBR Green kit and a LightCycler machine (Roche Biochemicals, Indianapolis, Ind.). […] When possible, the amplicons are designed to encompass exon-intron boundaries to avoid amplification of genomic DNA. Since the Syber Green assay detects accumulation of double stranded DNA, primers are selected (from a battery consisting of about 200 primers) that amplified a single product of the correct size.
(§2) RT-PCR is carried out on 150 ng total RNA, in the presence of 250 nM specific primers. Following reverse transcription (20 min at 50° C.), the PCR reaction consists of 45 cycles of denaturation (15 sec at 95° C.), annealing (30 sec at 58° C.), and elongation (30 sec at 72° C.). No-template (water) reaction mixtures are prepared as negative controls.
(§3) During PCR amplification, fluorescence emission is measured and recorded in real time by the LightCycler. Crossing point values are calculated, using the LightCycler software package, by the Fit Points analysis method, with baseline fluorescence set at 1. The SyberGreen assay measures accumulation of double-stranded products, and the appearance of primer dimers limits quantitation at high cycle numbers. The specificity of amplified products is verified by melting-curve analysis and agarose gel electrophoresis (not shown). The raw results are expressed as number of cycles to reach the crossing point. If the desired product is not detected, the corresponding value is adjusted to crossing points indicating no expression. To assess the contribution of experimental artifacts, selected cell lines are assessed in replicate.
(§4) The two are combined to form a joint dataset that includes 1429 compounds.
(§5) To determine quantitatively how well the 47 genes cluster the cell lines by their tissues of origin, a statistical method is employed wherein the kappa statistic is used to indicate how well the observed clusters correspond to the nine tissue-of-origin classifications. […] To control the overall false type 1 error rate, both a step-down procedure (Westfall and Young, 1993, Resampling-Based Multiple Testing: Examples and Methods for p-value Adjustment (New York: Wiley)) and a step-up procedure (Reiner et al., 2003, Bioinformatics 19:368-375) were employed to adjust for multiple testing of all 47 genes simultaneously. In the Benjamini-Hochberg procedure the p-values are computed in the standard way by permutation, assuming that all distributions are exchangeable: the number of values in the permuted data with correlations over a threshold, divided by the number of compounds and by the number of permutations. In this analysis, the False Discovery Rate (q-value) at which each compound would be declared was calculated using the step-up procedure for positively correlated test statistics (again true because all correlations being compared are computed against the same ABC gene): in this procedure the first q-value for the largest correlation is the Bonferroni-corrected p-value for that gene; then further q-values are calculated as qj=max(pj*1429/j, qj-1). This procedure limits the expected proportion of false positives in the list 1, . . . , j to at most qj.

[2] = target: T2, ABCA3 (Homo sapiens, UniProt Q99758); assay: Correlation of ABCA3 expression with drug sensitivity across the NCI-60; assay type: cell-based; conditions: Pearson correlation of ABCA3 expression with sensitivity of the 60 cell lines; 1429 compounds; inverse, p < 0.0001
T2 construct: profiled in 60 diverse cancer cell lines (the NCI-60) using real-time RT-PCR; endogenous in cells; host or cells: NCI-60 human cancer cell lines
T2 sequence (Q99758 whole entry): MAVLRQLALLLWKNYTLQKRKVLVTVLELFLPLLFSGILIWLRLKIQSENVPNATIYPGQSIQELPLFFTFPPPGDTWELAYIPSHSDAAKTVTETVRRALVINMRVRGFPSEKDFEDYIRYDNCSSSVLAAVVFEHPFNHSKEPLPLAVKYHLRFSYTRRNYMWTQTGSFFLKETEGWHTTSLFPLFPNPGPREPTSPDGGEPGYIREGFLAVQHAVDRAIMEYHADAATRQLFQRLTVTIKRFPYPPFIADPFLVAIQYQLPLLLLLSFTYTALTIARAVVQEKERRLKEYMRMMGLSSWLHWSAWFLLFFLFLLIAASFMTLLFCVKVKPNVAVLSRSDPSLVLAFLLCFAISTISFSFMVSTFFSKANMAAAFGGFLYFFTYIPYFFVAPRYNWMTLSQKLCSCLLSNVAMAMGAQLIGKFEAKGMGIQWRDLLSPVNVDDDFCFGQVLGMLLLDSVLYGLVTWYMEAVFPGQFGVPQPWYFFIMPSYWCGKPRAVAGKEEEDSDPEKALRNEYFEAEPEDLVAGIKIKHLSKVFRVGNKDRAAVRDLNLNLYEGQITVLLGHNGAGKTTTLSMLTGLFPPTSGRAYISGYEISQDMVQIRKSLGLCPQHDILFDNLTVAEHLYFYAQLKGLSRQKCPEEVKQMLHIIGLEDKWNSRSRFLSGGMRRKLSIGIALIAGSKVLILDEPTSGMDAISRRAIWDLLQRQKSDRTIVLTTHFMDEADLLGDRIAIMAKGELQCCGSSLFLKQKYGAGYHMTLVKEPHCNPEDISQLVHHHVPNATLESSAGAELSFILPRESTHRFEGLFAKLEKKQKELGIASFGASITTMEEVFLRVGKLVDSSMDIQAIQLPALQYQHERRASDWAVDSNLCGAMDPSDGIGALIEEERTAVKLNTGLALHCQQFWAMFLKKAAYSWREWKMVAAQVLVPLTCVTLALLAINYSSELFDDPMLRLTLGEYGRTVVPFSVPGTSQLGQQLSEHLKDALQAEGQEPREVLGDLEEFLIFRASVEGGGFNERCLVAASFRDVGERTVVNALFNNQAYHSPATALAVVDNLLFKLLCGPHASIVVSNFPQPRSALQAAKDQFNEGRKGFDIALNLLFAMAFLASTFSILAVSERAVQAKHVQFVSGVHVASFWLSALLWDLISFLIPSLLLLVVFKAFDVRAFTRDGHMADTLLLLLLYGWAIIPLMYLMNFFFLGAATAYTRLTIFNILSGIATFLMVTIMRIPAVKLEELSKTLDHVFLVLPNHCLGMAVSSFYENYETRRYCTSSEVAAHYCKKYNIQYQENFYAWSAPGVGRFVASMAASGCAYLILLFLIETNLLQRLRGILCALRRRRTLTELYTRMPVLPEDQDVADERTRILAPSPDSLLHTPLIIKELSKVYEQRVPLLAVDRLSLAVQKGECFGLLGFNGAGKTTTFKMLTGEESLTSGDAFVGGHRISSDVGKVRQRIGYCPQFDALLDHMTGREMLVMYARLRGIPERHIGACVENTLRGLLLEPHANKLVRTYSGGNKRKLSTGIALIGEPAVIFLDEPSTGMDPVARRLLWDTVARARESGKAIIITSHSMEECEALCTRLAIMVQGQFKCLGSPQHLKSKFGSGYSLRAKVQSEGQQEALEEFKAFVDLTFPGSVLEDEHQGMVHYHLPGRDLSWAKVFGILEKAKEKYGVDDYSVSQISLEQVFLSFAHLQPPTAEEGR
Protocol: as §1, §2, §3, §4, §5

[3] = system: KB-V1 cells (over-express MDR1-P-gp) vs parental KB-3-1 cells; assay: MTT assay using the KB-3-1/KB-V1 cell pair; assay type: cell-based, human
Protocol: Cell survival is measured by the MTT (3-(4,5-Dimethylthiazol-2-yl)-2,5-diphenyltetrazolium) Assay. Cells are seeded in 100 μl medium at a density of 5000 cells/well in 96 well plates, and serially diluted drug (with or without 2 μM PSC 833) is added the following day in 100 μl medium to give the indicated final concentration. Cells are then incubated for 72 hrs at 37° C. in 5% CO2, and the MTT assay is performed according to the manufacturer's instructions (Molecular Probes, Eugene, Oreg.).
To test whether our approach using the NCI-60 does, in fact, identify new substrates, an MTT assay is used to test all top-scoring compounds that were available from DTP for follow-up experiments. KB-3-1, a human carcinoma cell line, and KB-V1, a multidrug resistant derivative of KB-3-1 that over-expresses MDR1-P-gp (Shen et al., 1986, J. Biol. Chem. 261:7762-7770), are used for the tests. […] This resistance of KB-V-1 cells is invariably reversible by PSC 833. The intrinsic fluorescence of one of the compounds, NSC 634791, allows for the measurement of the effect of MDR1 activity on its export from cells.

[4] = target: ABCB1 (Homo sapiens, UniProt P08183); assay: Correlation of ABCB1 expression with drug sensitivity across the NCI-60
Outline: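 SYBR Green real-time RT-PCR on 150 ng total RNA with 250 nM primers: RT 20 min at 50 °C, then 45 cycles; expression taken as crossing-point cycle number. Correlated with drug sensitivity of 1429 compounds across the cell panel; permutation p-values with step-down and step-up (FDR q-value) multiple-testing correction.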

[5] = target: T3, ABCB5 (Homo sapiens, UniProt Q2M3G0); assay: Correlation of ABCB5 expression with drug sensitivity across the NCI-60; assay type: cell-based; conditions: Pearson correlation of ABCB5 expression with sensitivity of the 60 cell lines; 1429 compounds; inverse, p < 0.0001
T3 construct: profiled in 60 diverse cancer cell lines (the NCI-60) using real-time RT-PCR; endogenous in cells; host or cells: NCI-60 human cancer cell lines
T3 sequence (Q2M3G0 1-1257): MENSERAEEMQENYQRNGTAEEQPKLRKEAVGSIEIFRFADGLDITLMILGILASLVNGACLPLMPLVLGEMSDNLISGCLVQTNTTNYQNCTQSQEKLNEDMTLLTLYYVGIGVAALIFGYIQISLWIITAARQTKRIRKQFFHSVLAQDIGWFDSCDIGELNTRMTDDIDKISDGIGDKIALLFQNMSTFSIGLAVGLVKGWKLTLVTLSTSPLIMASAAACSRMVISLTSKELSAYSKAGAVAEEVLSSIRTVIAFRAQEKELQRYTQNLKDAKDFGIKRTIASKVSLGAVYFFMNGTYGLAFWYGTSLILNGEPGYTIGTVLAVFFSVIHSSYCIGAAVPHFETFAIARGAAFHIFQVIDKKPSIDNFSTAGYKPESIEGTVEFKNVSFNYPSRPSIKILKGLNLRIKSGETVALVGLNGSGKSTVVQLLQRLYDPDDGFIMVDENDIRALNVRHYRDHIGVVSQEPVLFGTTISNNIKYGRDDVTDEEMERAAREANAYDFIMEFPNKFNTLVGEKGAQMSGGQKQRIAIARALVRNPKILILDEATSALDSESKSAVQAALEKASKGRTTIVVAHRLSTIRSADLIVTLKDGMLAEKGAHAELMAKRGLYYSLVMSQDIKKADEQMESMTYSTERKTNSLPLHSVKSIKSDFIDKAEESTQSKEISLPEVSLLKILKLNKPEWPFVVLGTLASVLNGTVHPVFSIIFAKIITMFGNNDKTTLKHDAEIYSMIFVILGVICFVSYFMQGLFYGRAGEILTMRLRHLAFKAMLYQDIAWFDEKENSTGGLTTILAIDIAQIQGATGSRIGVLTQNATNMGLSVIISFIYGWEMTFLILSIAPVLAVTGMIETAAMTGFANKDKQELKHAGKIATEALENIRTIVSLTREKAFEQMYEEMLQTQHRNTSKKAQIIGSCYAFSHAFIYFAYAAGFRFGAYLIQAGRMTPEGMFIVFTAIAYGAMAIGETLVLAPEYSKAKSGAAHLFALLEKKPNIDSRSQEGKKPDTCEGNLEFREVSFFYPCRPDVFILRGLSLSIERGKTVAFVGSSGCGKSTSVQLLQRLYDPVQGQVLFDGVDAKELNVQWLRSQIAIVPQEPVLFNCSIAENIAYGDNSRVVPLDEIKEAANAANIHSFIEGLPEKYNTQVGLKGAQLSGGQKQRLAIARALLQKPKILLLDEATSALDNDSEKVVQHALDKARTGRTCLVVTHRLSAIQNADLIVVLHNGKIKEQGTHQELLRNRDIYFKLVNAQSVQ
Protocol: as §1, §2, §3, §4
In the Benjamini-Hochberg procedure the p-values are computed in the standard way by permutation, assuming that all distributions are exchangeable: the number of values in the permuted data with correlations over a threshold, divided by the number of compounds and by the number of permutations. In this analysis, the False Discovery Rate (q-value) at which each compound would be declared was calculated using the step-up procedure for positively correlated test statistics (again true because all correlations being compared are computed against the same ABC gene): in this procedure the first q-value for the largest correlation is the Bonferroni-corrected p-value for that gene; then further q-values are calculated as qj=max(pj*1429/j, qj-1). This procedure limits the expected proportion of false positives in the list 1, . . . , j to at most qj.

[6] = target: T4, ABCC3 (Homo sapiens, UniProt O15438); assay: Correlation of ABCC3 expression with drug sensitivity across the NCI-60; assay type: cell-based; conditions: Pearson correlation of ABCC3 expression with sensitivity of the 60 cell lines; 1429 compounds; inverse, p < 0.0001
T4 construct: profiled in 60 diverse cancer cell lines (the NCI-60) using real-time RT-PCR; endogenous in cells; host or cells: NCI-60 human cancer cell lines
T4 sequence (O15438 whole entry): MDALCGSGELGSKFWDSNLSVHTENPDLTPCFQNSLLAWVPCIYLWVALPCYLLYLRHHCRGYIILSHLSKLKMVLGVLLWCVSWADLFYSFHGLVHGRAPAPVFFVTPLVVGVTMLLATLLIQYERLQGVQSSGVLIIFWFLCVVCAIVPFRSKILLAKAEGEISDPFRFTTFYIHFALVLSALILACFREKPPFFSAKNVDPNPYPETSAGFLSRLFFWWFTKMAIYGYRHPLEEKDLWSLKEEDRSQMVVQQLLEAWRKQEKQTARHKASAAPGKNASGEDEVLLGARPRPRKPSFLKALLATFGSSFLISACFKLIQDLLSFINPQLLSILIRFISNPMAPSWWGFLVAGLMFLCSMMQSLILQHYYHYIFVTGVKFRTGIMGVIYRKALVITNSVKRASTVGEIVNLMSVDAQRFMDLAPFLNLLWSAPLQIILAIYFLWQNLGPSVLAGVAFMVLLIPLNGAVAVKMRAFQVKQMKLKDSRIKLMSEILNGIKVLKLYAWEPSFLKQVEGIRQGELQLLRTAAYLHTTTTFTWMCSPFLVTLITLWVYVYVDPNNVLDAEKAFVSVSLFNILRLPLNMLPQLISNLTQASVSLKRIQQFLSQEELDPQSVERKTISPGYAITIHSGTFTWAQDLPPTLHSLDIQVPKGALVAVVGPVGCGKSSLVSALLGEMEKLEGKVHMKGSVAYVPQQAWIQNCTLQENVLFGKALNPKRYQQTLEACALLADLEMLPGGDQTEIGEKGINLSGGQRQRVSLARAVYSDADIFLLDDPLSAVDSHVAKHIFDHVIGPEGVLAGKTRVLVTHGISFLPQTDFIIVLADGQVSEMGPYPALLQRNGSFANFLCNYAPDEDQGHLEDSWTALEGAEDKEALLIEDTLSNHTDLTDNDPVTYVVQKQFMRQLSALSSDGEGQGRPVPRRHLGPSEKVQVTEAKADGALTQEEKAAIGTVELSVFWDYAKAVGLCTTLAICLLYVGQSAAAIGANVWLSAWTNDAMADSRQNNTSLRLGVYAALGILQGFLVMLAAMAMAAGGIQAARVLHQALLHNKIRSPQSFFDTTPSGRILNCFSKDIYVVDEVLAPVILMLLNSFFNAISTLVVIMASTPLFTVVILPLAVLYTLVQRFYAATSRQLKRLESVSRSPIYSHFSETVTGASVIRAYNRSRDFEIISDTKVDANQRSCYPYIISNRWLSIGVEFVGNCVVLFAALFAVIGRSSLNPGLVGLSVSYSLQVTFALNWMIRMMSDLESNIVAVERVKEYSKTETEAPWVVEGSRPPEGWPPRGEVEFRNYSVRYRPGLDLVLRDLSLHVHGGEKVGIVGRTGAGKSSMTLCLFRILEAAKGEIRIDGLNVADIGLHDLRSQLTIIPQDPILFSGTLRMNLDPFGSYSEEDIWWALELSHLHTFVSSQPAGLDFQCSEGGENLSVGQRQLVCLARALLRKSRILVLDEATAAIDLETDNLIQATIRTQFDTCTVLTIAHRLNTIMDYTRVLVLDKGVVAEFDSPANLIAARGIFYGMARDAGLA
Protocol: as §1, §2, §3, §4, §5

[7] = target: T5, ABCC2 (Homo sapiens, UniProt Q92887); assay: Correlation of ABCC2 expression with drug sensitivity across the NCI-60; assay type: cell-based; conditions: Pearson correlation of ABCC2 expression with sensitivity of the 60 cell lines; 1429 compounds; inverse, p < 0.0001
T5 construct: profiled in 60 diverse cancer cell lines (the NCI-60) using real-time RT-PCR; endogenous in cells; host or cells: NCI-60 human cancer cell lines
T5 sequence (Q92887 whole entry): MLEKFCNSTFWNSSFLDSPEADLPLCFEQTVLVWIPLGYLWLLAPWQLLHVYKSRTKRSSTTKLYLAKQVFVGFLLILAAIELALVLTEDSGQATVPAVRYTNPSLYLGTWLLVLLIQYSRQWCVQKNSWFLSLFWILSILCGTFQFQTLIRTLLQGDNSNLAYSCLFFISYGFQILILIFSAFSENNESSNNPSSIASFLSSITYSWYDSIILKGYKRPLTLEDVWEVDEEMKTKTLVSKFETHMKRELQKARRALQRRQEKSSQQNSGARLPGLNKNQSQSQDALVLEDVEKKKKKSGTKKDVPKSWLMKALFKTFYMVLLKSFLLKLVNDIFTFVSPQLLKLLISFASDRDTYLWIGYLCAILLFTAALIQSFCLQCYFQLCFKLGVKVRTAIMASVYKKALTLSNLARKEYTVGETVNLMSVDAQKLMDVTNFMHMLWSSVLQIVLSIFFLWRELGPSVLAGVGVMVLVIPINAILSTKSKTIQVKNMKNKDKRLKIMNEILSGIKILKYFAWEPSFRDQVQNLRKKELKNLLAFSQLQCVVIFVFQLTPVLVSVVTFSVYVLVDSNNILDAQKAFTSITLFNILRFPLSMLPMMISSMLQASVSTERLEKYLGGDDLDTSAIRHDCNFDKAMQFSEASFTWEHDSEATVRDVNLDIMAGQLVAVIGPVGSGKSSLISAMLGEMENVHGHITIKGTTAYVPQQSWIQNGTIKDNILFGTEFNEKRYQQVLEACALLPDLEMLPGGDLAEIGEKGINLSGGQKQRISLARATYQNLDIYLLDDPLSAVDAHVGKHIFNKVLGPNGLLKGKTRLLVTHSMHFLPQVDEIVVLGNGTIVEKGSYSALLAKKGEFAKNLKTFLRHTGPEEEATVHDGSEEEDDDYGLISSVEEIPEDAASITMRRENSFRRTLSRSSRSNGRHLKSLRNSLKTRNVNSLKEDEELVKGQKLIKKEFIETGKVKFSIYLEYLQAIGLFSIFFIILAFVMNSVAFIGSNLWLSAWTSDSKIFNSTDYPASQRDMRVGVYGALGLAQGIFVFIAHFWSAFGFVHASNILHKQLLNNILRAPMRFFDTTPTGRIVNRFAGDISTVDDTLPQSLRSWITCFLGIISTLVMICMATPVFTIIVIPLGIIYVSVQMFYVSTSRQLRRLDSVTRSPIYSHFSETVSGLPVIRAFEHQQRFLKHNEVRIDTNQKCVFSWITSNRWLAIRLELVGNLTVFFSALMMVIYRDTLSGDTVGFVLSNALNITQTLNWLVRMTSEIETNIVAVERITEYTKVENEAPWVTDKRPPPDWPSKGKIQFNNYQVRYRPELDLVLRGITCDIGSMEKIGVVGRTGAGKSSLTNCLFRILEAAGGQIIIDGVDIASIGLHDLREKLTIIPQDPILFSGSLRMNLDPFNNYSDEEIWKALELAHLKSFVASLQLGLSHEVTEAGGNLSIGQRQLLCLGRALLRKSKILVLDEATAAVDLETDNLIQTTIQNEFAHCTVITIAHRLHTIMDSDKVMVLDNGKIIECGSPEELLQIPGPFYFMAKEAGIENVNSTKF
Protocol: as §1, §2, §3, §4, §5

[8] = target: T6, ABCD1 (Homo sapiens, UniProt P33897); assay: Correlation of ABCD1 expression with drug sensitivity across the NCI-60; assay type: cell-based; conditions: Pearson correlation of ABCD1 expression with sensitivity of the 60 cell lines; 1429 compounds; inverse, p < 0.0001
T6 construct: profiled in 60 diverse cancer cell lines (the NCI-60) using real-time RT-PCR; endogenous in cells; host or cells: NCI-60 human cancer cell lines
Protocol: as §1, §2, §3, §4, §5

## CC12CCC(CC1)C(C)(C)O2 [NSC 6171]
[1]
  Correlation: −0.4552

## CC[C@]1(O)C[C@@H]2CN(CCc3c([nH]c4ccccc34)[C@@](C(=O)OC)(c3cc4c(cc3OC)N(C)[C@H]3[C@@](O)(C(=O)OC)[C@H](OC(C)=O)[C@]5(CC)C=CCN6CC[C@]43[C@@H]65)C2)C1.O=S(=O)(O)O [NSC 49842]
[2]
  Correlation: −0.3678

## COc1ccc(NC(=S)N=Nc2c(O)[nH]c3c(Cl)cc(Cl)cc23)cc1 [NSC 73304]
[3]; MTT assay with 2 μM PSC 833
  Effect of PSC 833 on the heightened sensitivity of KB-V1 cells: completely reverses sensitivity
[3]; MTT assay, 72 hrs
  Sensitivity of KB-V1 cells relative to parental KB-3-1 (potentiation by ABCB1): several-fold more sensitive

## NC(=S)N=Nc1c(O)[nH]c2c(Cl)cc(Cl)cc12 [NSC 73305]
[3]; MTT assay with 2 μM PSC 833
  Effect of PSC 833 on the heightened sensitivity of KB-V1 cells: completely reverses sensitivity
[3]; MTT assay, 72 hrs
  Sensitivity of KB-V1 cells relative to parental KB-3-1 (potentiation by ABCB1): several-fold more sensitive

## Cc1c2ccnc(-c3ccccc3)c2cc2c1[nH]c1ccccc12 [NSC 86715]
[4]
  Correlation of antiproliferative activity with ABCB1 expression: 0.5323
[1]
  Correlation: −0.5696

## O=[N+]([O-])c1cccc(/C=N/Nc2ccc3ccccc3n2)c1O [NSC 168468]
[3]; MTT assay with 2 μM PSC 833
  Effect of PSC 833 on the heightened sensitivity of KB-V1 cells: completely reversed sensitivity
[3]; MTT assay, 72 hrs
  Sensitivity of KB-V1 cells relative to parental KB-3-1 (potentiation by ABCB1): equivalent to or greater than the potentiation effect observed for NSC 73306
[4]
  Correlation of antiproliferative activity with ABCB1 expression: 0.4839

## COc1ccc(O)c2c(=O)c3c(OC)cc4c(c3oc12)[C@@H]1C=CO[C@@H]1O4 [NSC 178249]
[1]
  Correlation: −0.5603

## CN1N=C(N)c2cn([C@@H]3O[C@H](COP(=O)(O)O)[C@@H](O)[C@H]3O)c3ncnc1c23 [NSC 280594]
[5]
  Correlation: −0.3477

## COc1cc(C(=O)N[C@H]2CCc3cc(OC)c(OC)c(OC)c3-c3ccc(OC)c(=O)cc32)cc(OC)c1OC [NSC 355256]
[2]
  Correlation: −0.3769

## O=C1c2cccc(NCCNCCO)c2C(=O)c2cccc(NCCNCCO)c21 [NSC 363997]
[3]; MTT assay with 2 μM PSC 833
  Effect of PSC 833 on the resistance of KB-V1 cells: reverses the resistance
[3]; MTT assay, 72 hrs
  Resistance of KB-V1 cells in comparison with the parental line: resistant

## COc1cc2c(c(OC(C)=O)c1OC(C)=O)-c1ccc(SC)c(=O)cc1C(NC(C)=O)CC2 (centres unmarked) [NSC 374979]
[2]
  Correlation: −0.4573

## CC(C)(C)c1nc2c(o1)C(=Nc1ccc(F)cc1)c1ccccc1C2=O [NSC 626030]
[1]
  Correlation: −0.5025

## COc1cc2cc[n+]3c(c2cc1OC)C(=O)c1ccccc1-3 [NSC 627787]
[1]
  Correlation: −0.5471

## Cn1c(=O)nc2n(-c3ccc(Cl)cc3)c3cc(Cl)ccc3nc-2c1=O [NSC 627991]
[6]
  Correlation: −0.4741

## CCN(CC)CC(O)CNc1ccc(NCC2CO2)c2c1C(=O)c1ccccc1C2=O (centres unmarked) [NSC 639366]
[6]
  Correlation: −0.5003

## CC(C)Cc1ccc(C(C)/C=C2\CCC(CN3CCOCC3)C2=O)cc1.Cl (centres unmarked) [NSC 639976]
[7]
  Correlation: −0.4670

## CC(C)Cc1ccc(C(C)/C=C2\CCC(CN3CCCCC3)C2=O)cc1.Cl (centres unmarked) [NSC 639978]
[7]
  Correlation: −0.5210

## O=C(CC(=O)c1ccccc1NC1=Cc2ccccc2C(=O)C1=O)C(=O)NC1=C(Cl)C(=O)c2ccccc2C1=O [NSC 641245]
[6]
  Correlation: −0.5702

## CC(C)(C)NNc1c([N+](=O)[O-])cnn(-c2ccccc2)c1=O [NSC 641820]
[6]
  Correlation: −0.3991

## CC1CSC(=S)N1C(=O)N1C(=S)SCC1C (centres unmarked) [NSC 654968]
[1]
  Correlation: −0.5519

## CC(=O)O[C@@]12CO[C@@H]1CC(O)[C@@]1(C)C(=O)[C@H](O)C3=C(C)C(O)C[C@@](O)(C(OC(=O)c4ccccc4)C12)C3(C)C (some centres unmarked) [NSC 656178]
[2]
  Correlation: −0.4318

## O=C1C=C(N2CCN(c3ccccn3)CC2)C(=O)c2c(O)ccc(O)c21 [NSC 658142]
[2]
  Correlation: −0.4017
[6]
  Correlation: −0.4982

## CC(=O)NC1=CC(=O)c2cc(C)cc(O)c2C1=O [NSC 658450]
[6]
  Correlation: −0.5526

## OCC1OC(c2scc3c(=S)nc[nH]c23)C(O)C1O (centres unmarked) [NSC 670036]
[5]
  Correlation: −0.4561

## CCOC(=O)/C(C#N)=C/c1ccc2c(c1)CC1(C2)Cc2cc(CC)c(C(C)O)cc2C1 (centres unmarked) [NSC 670289]
[6]
  Correlation: −0.3824

## COC(=O)CCC(=O)NC1=C(Nc2ccc(OC)cc2)C(=O)c2ccccc2C1=O [NSC 670766]
[1]
  Correlation: −0.4378

## CC(=O)Oc1ccc(C2(c3ccc(F)cc3)OC(=O)c3ccccc32)c(C)c1 (centres unmarked) [NSC 671456]
[5]
  Correlation: −0.3650

## CC(=O)O[C@H]1C(=O)[C@@]2(C)[C@H]([C@H](OC(=O)c3ccco3)[C@]3(O)C[C@H](OC(=O)[C@H](O)[C@@H](NC(=O)c4ccccc4)c4ccccc4)C(C)=C1C3(C)C)[C@]1(OC(C)=O)CO[C@@H]1C[C@@H]2O [NSC 673187]
[2]
  Correlation: −0.3896

## Cc1ccc(C2=CC(=O)/C(=C\C(=O)c3ccc(Br)cc3)O2)c(C)c1 [NSC 674919]
[7]
  Correlation: −0.4608

## CC(C)OC(=O)c1ccc(CCC2=CC(=O)C=CC2=O)cc1 [NSC 684496]
[7]
  Correlation: −0.4340

## CC1(C)OC2C(CO[Si](C)(C)C(C)(C)C)OC(n3cnc4c(N)nc(C#C[Si](C)(C)C)nc43)C2O1 (centres unmarked) [NSC 687496]
[7]
  Correlation: −0.4544

## CCCCCCOc1ccc(C(=O)NO)cc1 [NSC 692754]
[7]
  Correlation: −0.4016
[4]
  Pearson's Correlation Coeff: 0.4616
[8]
  Correlation: −0.4680

## CCOC(=O)c1oc2cc3c(c4c2c1-c1ccccc1N4C)C=CC(C)(C)O3 [NSC 693215]
[7]
  Correlation: −0.4377

## CC(=O)Oc1c2ccsc2c(OC(C)=O)c2ccsc12 [NSC 695914]
[1]
  Correlation: −0.4297

## CC1=NN(c2nc(N)nc(CBr)n2)C(C)(C)C1 [NSC 696916]
[7]
  Correlation: −0.4224
